SMILES strings stand for the structures. Read-outs that look alike come from different tables or passages of the source.

Series [1] addresses Recombinant ZIKV NS5 protein (ZIKV RdRp) (Zika virus, UniProt A0A024B7W1). Put plainly: Primer extension polymerase activity assay. In kind it is biochemical. Conditions: RNA P/T, then ATP, GTP, CTP, UTP 100 μM each, 30°C 2 h; 3′-dATP 100 μM, HMTU-TP 0.025-1.6 mM. The procedure: To generate RNA primer-template complexes (RNA P/T), 0.5 μM fluorescently labeled RNA primer and 2 μM unlabeled RNA template were mixed in 50 mM NaCl, incubated at 95°C for 10 min, and then slowly cooled down to room temperature. The annealed RNA P/T was stored at -30°C before use in the primer extension assay.
The primer extension assay was performed according to a previous report ([Lu et al., 2017]). For analysis of the competitive inhibition ability of HMTU-TP, 200 nM of recombinant ZIKV NS5 (Sino Biological) and 50 nM RNA P/T were incubated 30°C for 15 min in reaction buffer [10 mM Tris-HCl (pH 7.5), 10 mM DTT, 5 mM MgCl2, 5% glycerol, 0.05% Triton-X 100, and 0.02 U/μL RNasein (Promega)], and then ATP analogs [500 μM ATP (Thermo Fischer Scientific), 100 μM 3’-dATP (TriLink), or serially diluted HMTU-TP (0.025, 0.1, 0.4 or 1.6 mM)] were added and incubated at 30°C for 10 min. Primer extension reactions were initiated by the addition of ATP, GTP, CTP and UTP (100 μM each). The reactions were performed 30°C for 2 h and stopped by the addition of quenching buffer (7M Urea, 1X TBE buffer, and 50 mM EDTA). The quenched samples were denatured at 95°C for 5 min, and the primer extension products were separated on a 15% denaturing polyacrylamide gel (Invitrogen). […] The band intensities were analyzed by ImageQuant TL version 8.2.0 (Cytiva).

The test system of a further series is WNV. Put plainly: CPE-based antiviral assay (MTT), WNV in BHK-21. In kind it is cell-based. To be noted: West Nile virus, BHK-21, 72 h, read-out: EC50 against WNV.
The subject of series [2] is DENV2. Put plainly: CPE-based antiviral assay (resazurin), DENV2 in BHK-21. In kind it is cell-based, Dengue virus 2. Conditions: Dengue virus, DENV2, BHK-21, 96 h, read-out: EC50 against DENV2.
Another series has as its system DENV1. The series can be described thus: CPE-based antiviral assay (resazurin), DENV1 in BHK-21. In kind it is cell-based, Dengue virus 1. To be noted: Dengue virus, DENV1, BHK-21, 120 h, read-out: EC50 against DENV1.
Another series deals with ZIKV. The series can be described thus: CPE-based antiviral assay (MTT), ZIKV in BHK-21. In kind it is cell-based. To be noted: Zika virus, BHK-21, 72 h, read-out: EC50 against ZIKV.
Another series concerns JEV. The series can be described thus: CPE-based antiviral assay (MTT), JEV in BHK-21. In kind it is cell-based. To be noted: Japanese encephalitis virus, BHK-21, 72 h, read-out: EC50 against JEV.
A further series deals with YFV. The series can be described thus: microbe, parasite or virus in culture. In kind it is cell-based. Conditions: Yellow fever virus, BHK-21, 72 h, read-out: EC50 against YFV.
The next series deals with DENV3. Put plainly: CPE-based antiviral assay (resazurin), DENV3 in BHK-21. Conditions: Dengue virus, DENV3, BHK-21, 120 h, read-out: EC50 against DENV3. In kind it is cell-based, Dengue virus 3.
The test system of another series is DENV4. The series can be described thus: CPE-based antiviral assay (resazurin), DENV4 in BHK-21. In kind it is cell-based, Dengue virus 4. To be noted: Dengue virus, DENV4, BHK-21, 120 h, read-out: EC50 against DENV4.
The subject of the next series is SARS-CoV-2. Put plainly: qRT-PCR analysis of SARS-CoV-2 in Caco-2 cells (rescreening, supernatant viral RNA). In kind it is cell-based. Conditions: qRT-PCR analysis using Caco-2 cells, MOI 0.1, 48 h.
Another series relates to HCoV-OC43. The series can be described thus: Resazurin reduction assay, HCoV-OC43-infected MRC5 cells.
Series [3] has as its system DENV2. The series can be described thus: MTT assay, DENV2-infected BHK-21 cells. In kind it is cell-based, Dengue virus 2. Conditions: Dengue virus.
Series [4] can be described thus: Cytotoxicity assay in BHK-21 cells. Conditions: hamster. In kind it is cell-based, Hamster.
Another series has as its system BHK-21 cells. Put plainly: Cytotoxicity assay in BHK-21 cells. In kind it is cell-based, Hamster. To be noted: concentrations up to 20 μM.
Another series has as its system HCoV-229E. The series can be described thus: Resazurin reduction assay, HCoV-229E-infected MRC5 cells.
Another series deals with MRC5 cells. The series can be described thus: Cytotoxicity against MRC5 cells. In kind it is cell-based, Human. To be noted: for CC50: rescreening (Table 3), read-out: CC50. As for the experimental part: (§1) The MTT (3-[4,5-dimethyl-2-thiazolyl]-2,5-diphenyl-2H-tetrazolium bromide) and resazurin reduction assays were carried out as previously described ([Nobori et al., 2018]; [Sanaki et al., 2019]). These were performed to calculate cell viability following viral induced CPE or cytotoxicity. Assay conditions for flaviviruses are as described in Table 2.

A short description of series [5]: Cytotoxicity against MRC5 cells. In kind it is cell-based, Human. Conditions: human. As for the experimental part: as §1
Another series relates to dogs. On the set-up: method as in Lim et al., 2015; Yin et al., 2009. To be noted: dosed orally, preclinical, ref Lim et al., 2015, Yin et al., 2009; cited from earlier work.
A further series has as its system rats. On the set-up: method as in Lim et al., 2015; Yin et al., 2009. Conditions: dosed orally, preclinical, ref Lim et al., 2015, Yin et al., 2009; cited from earlier work.
Setting [6] is: Severe acute respiratory syndrome coronavirus 2.
Setting [7] is: Betacoronavirus 1, OC43, MRC5, read-out: HCoV-OC43 EC50.
Where [8] appears, read: MRC5 cells, resazurin reduction assay.
[9] abbreviates: Human coronavirus 229E, MRC5, read-out: HCoV-229E EC50.
The mark [10] stands for this setting: rescreening (Table 3), read-out: CC50.
The mark [11] stands for this setting: read-out: HCoV-OC43 EC50, MRC5 cells, resazurin reduction assay, rescreening of nine tubercidin derivatives.
Where [12] appears, read: read-out: HCoV-229E EC50, MRC5 cells, resazurin reduction assay, rescreening of nine tubercidin derivatives.

Chain of Recombinant ZIKV NS5 protein (ZIKV RdRp) (A0A024B7W1 2521-3423): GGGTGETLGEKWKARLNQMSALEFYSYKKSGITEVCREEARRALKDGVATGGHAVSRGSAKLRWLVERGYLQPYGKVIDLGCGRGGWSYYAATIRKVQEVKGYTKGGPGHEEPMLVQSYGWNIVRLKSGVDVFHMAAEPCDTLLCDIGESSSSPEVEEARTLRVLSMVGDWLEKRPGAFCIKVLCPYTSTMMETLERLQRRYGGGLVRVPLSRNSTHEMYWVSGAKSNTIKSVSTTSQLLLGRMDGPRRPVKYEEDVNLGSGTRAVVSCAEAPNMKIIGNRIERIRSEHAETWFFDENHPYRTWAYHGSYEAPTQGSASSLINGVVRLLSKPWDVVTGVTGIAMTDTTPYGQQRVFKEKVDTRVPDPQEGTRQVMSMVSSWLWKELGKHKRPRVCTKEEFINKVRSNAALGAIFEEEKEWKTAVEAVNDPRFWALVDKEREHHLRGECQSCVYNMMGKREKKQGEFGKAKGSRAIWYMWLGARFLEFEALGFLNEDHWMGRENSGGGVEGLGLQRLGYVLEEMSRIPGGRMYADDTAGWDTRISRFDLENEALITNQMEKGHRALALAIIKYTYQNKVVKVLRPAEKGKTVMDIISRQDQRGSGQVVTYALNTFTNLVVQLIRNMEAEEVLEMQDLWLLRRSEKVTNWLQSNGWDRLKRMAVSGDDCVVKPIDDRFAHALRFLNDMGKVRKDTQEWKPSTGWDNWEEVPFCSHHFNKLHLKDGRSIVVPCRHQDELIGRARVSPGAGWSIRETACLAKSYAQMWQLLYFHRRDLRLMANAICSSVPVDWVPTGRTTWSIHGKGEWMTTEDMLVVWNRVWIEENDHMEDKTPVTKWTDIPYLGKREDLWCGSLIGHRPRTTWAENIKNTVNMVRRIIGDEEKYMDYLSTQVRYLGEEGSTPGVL

Consider `Nc1ncnc2c1ncn2[C@@H]1O[C@H](COP(=O)(O)OP(=O)(O)OP(=O)(O)O)C[C@H]1O` [3′-dATP, 3'-Deoxyadenosine-5'-Triphosphate, reference compound], for which the “effect on RNA extension by ZIKV RdRp” value in [1] is listed as “prevented RNA extension”.

On to `NC(=O)c1nc(F)c[nH]c1=O` [Favipiravir], for which the EC50 was greater than 100 µM in the series on WNV; 4.4 µM with DENV2 [2]; 17 µM in the series with DENV1; 40 µM in the series with ZIKV; 80 µM in the series on JEV; 57 µM with YFV. The results for the EC50 in the series with DENV3 and in the series on DENV4 were 13 µM and 5.2 µM, respectively.

For `Nc1ncnc2c1c(CO)cn2C1OC(COP(=O)(O)OP(=O)(O)OP(=O)(O)O)C(O)C1O` (centres unmarked) [HMTU-TP, HMTU 5′-triphosphate], the “effect on RNA extension by ZIKV RdRp” value in series [1] is “incorporated into RNA template, resulting in chain termination”.

For the compound `Nc1ncnc2c1c(/C=N\O)cn2[C@@H]1O[C@H](CO)[C@@H](O)[C@H]1O` [HUP1069, 5-formyltuberucidin oxime], it took 0.2 µM to reach the 90% level with SARS-CoV-2 (setting [6]) (EC90). Further, the EC50 with HCoV-OC43 (setting [7]) was 0.055 µM; in the series with DENV2 [3], less than 0.125 µM; in the series with HCoV-229E (setting [9]), less than 0.078 µM. Further, the “anti-HCoV-OC43 activity (in words)” value in the series on HCoV-OC43 (setting [8]) is “strong antiviral activities”. Moreover, the CC50 in series [4] turned out to be 0.18 µM; in series [5] (setting [10]) it was 0.74 µM. Further, the “cytotoxicity (in words)” value in the series on BHK-21 cells and with MRC5 cells was “high cytotoxicity” in each case. For the same compound, the “anti-HCoV-229E activity (in words)” value in the series on HCoV-229E (setting [8]) is “strong antiviral activities”.

Compound `Nc1c2ccn([C@@H]3O[C@H](CO)[C@@H](O)[C@H]3O)c2nc[n+]1[O-]` [HUP1077, 3-tubercidin N-oxide] returned an EC90 in the series on SARS-CoV-2 (setting [6]) of 3.5 µM. In addition, the results for the EC50 in the series with HCoV-OC43 (setting [7]), with DENV2 [3] and in the series with HCoV-229E (setting [9]) were 4.3 µM, 0.95 µM and 4 µM, respectively. Further, the “anti-HCoV-OC43 activity (in words)” value with HCoV-OC43 (setting [8]) is listed as “strong antiviral activities”. Also, the CC50 in series [4] was greater than 20 µM; in series [5] (setting [10]), 24 µM. For the same compound, in the series on BHK-21 cells, the “cytotoxicity (in words)” value is “did not exhibit cytotoxicity”. Besides, in the series on HCoV-229E (setting [8]), the “anti-HCoV-229E activity (in words)” value is recorded as “strong antiviral activities”.

`Nc1ncnc2c1c([N+](=O)[O-])cn2[C@@H]1O[C@H](CO)[C@@H](O)[C@H]1O` [HUP1078] returned an EC90 in the series with SARS-CoV-2 of 0.1 µM. Moreover, the EC50 was greater than 10 µM with HCoV-OC43 (setting [11]) and 2 µM in the series on HCoV-229E (setting [12]). In the series with MRC5 cells, the CC50 turned out to be 0.33 µM.

In the series with SARS-CoV-2, `N#Cc1cn([C@@H]2O[C@H](CO)[C@@H](O)[C@H]2O)c2ncnc(N)c12` [HUP1109] displayed an EC90 of 0.2 µM. The EC50 was greater than 10 µM in the series with HCoV-OC43 (setting [11]) and 2.3 µM in the series with HCoV-229E (setting [12]). For the same compound, the CC50 with MRC5 cells is 0.59 µM.

On to `Nc1ncnc2c1ccn2[C@@H]1O[C@H](CO)[C@@H](O)[C@H]1O` [HUP1136, tubercidin], for which the EC90 with SARS-CoV-2 (setting [6]) was found to be 0.087 µM. For the same compound, the concentration for a half-maximal effect (EC50) was 0.11 µM in the series on HCoV-OC43 (setting [7]), less than 0.125 µM in the series on DENV2 [3] and less than 0.078 µM with HCoV-229E (setting [9]). Moreover, the “anti-HCoV-OC43 activity (in words)” value in the series with HCoV-OC43 (setting [8]) is “strong antiviral activities”. Besides, the cytotoxic concentration (CC50) is 0.34 µM in series [4] and 0.66 µM in series [5] (setting [10]). The “cytotoxicity (in words)” value with BHK-21 cells and in the series on MRC5 cells was “high cytotoxicity” each time. Further, the “anti-HCoV-229E activity (in words)” value in the series on HCoV-229E (setting [8]) is given as “strong antiviral activities”.

Take `C#C[C@@]1(O)[C@H](O)[C@@H](CO)O[C@H]1n1ccc2c(N)ncnc21` [NITD-008, 2′-C-ethynyltubercidin]: the toxicity entry in the series on dogs and in the series with rats was “significant toxicity” in each case.

As to `CCC(CC)COC(=O)[C@H](C)N[P@](=O)(OC[C@H]1O[C@@](C#N)(c2ccc3c(N)ncnn23)[C@H](O)[C@@H]1O)Oc1ccccc1` [Remdesivir, reference compound], the EC50 stood at 0.229 µM in the series with HCoV-OC43 (Betacoronavirus 1, OC43, MRC5, read-out: HCoV-OC43 EC50, mean) and 0.071 µM in the series with HCoV-229E (Human coronavirus 229E, MRC5, read-out: HCoV-229E EC50, mean). Also, the CC50 in series [5] (mean from three independent experiments (Table 4), read-out: CC50 MRC5, mean) is greater than 50 µM.

As to `NC(=O)c1ncn([C@@H]2O[C@H](CO)[C@@H](O)[C@H]2O)n1` [Ribavirin], the EC50 in the series with WNV turned out to be 52 µM; in the series with DENV2 [2] it was 19 µM; with DENV1, 62 µM; in the series with DENV2 [3] it was 28 µM; in the series on ZIKV, 31 µM; in the series with JEV, 33 µM. Further, the values for the EC50 in the series on YFV, in the series with DENV3 and in the series with DENV4 were 34 µM, 54 µM and 86 µM, respectively. This compound came in with a CC50 in series [4] greater than 400 µM.

Values taken from PMC8433052 (iScience, 2021).
